From patent US6468537B1, “Localization of major peptide autoepitopes for nucleosome specific T cells of systemic lupus erythematosus” (The Board of Trustees of Northwestern University, priority 1999, dated 2002)

Key:
[1] = tested on: anti-DNA autoantibodies of lupus; conditions: cited from earlier work
[2] = tested on: splenic T cells of pre-nephritic SNF1 mice; conditions: cited from earlier work
SNF1 mice [3] = assay: Brief therapy with nucleosomal histone peptides (long-term experiments): incidence of severe nephritis; format: in vivo, mouse
Description: (§1) Long-term experiments used 12 week-old, autoimmune, but pre-nephritic SNF1 female mice. Nine mice per peptide test group were injected intravenously with either a saline (solution) or a peptide solution comprising saline and 300 micrograms of one of H2B10-33, H416-39, and H471-94. Each mouse received three subsequent injections of either the saline solution or one of the peptide solutions at two-week intervals. The mice were monitored weekly for proteinuria using an Albustix kit (VWR Scientific, Chicago, Ill.), and sacrificed upon the development of persistent proteinuria. Persistent protenuria was identified as an amount of protein in urine that is equivalent to or greater than 300 milligrams per deciliter, and is a primary indication of severe kidney disease and damage associated with nephritis. Sera were collected from each mouse and the IgG anti-nuclear autoantibodies determined. Blood urea nitrogen (BUN) was measured by Azostix (Miles, Ekhart, Ind.). Immune complex deposition and glomerulonephritis in the kidney were detected by staining with Hematoxylin and Eosin and anti-mouse Ig. These procedures were carried out as previously described (Mohan et al., 1993, J. Exp. Med. 177:1367; Mohan et al., 1995, J. Immunol. 154:1470; Eastcott et al., 1983, J. Immunol. 131:2232; Adams et al., 1991, Proc. Natl. Acad. Sci. USA 88:11271; Kalled et al., 1998, J. Immunol. 160:2158; Gaynor et al., 1997, Proc. Natl. Acad. Sci. USA 94:1955).

SNF1 mice [4] = assay: Short-term tolerance experiments: grading of lupus nephritis at sacrifice; format: in vivo, mouse; conditions: short-term batch, at sacrifice two weeks after last injection
Description: Short-term experiments were conducted to test the early immunological consequences of tolerance therapy. Twelve week old SNF1 mice were injected once a week for four weeks with either a saline solution or a peptide solution comprising saline and 300 micrograms of one of the above described peptides. Mice were sacrificed at two weeks after the last injection. Presence of autoimmune T and B cells was analyzed and renal lesions were graded.

CD4+ T cells = assay: Helper assay: CD4+ T cells from peptide-injected mice co-cultured with B cells from unmanipulated SNF1 mice; format: cell-based, mouse; conditions: for reduction of anti-ssDNA antibody production relative to control group / reduction of anti-dsDNA antibody production compared with control group: T cells from treated mice + B cells from unmanipulated mice; for reduction of anti-dsDNA antibody production compared with control group: 7 days; for increase in help for anti-dsDNA antibody production following addition of rIL-2: rIL-2 added at beginning of 7-day culture
Text: (§2) Levels of IgG class autoantibodies specific for single-stranded DNA (ssDNA), double-stranded DNA (dsDNA), histones, and nucleosomes (i.e. histone-DNA complexes), in culture supernatants or serum, were estimated using an enzyme-linked immunosorbent assay (ELISA). Anti-DNA mAbs 564 and 205 were used to generate standard curves as previously described (Mohan et al., 1993, J. Exp. Med. 177:1367; Kaliyaperumal et al., 1996, J. Exp. Med. 183:2459; Mohan et al., 1995, J. Immunol. 154:1470; Adams et al., 1991, Proc. Natl. Acad. Sci. USA 88:11271). Sera were diluted 1:400 and heat-inactivated before use according to standard procedures. Sera from normal SWR mice were used as the negative control. Total polyclonal IgG levels were also measured by ELISA as previously described (Mohan et al., 1993, J. Exp. Med. 177:1367; Mohan et al., 1995, J. Immunol. 154:1470; Adams et al., 1991, Proc. Natl. Acad. Sci. USA 88:11271).
(§3) T-cells from peptide-treated mice used in the short-term experiments were co-cultured with splenic B cells from unmanipulated mice. Conversely, T cells from unmanipulated SNF1 mice (i.e. control mice) were co-cultured with splenic B cells from tolerized (i.e. peptide-injected) mice. Each of the cell types was seeded in 24-well plates at an initial concentration of 2.5×10^6 cells per well. Cultures were maintained for 7 days, as previously described (Datta et al., 1987, J. Exp. Med. 165:1252; Sainis and Datta, 1988, J. Immunol. 140:2215). B cells from unmanipulated or tolerized animals were cultured alone to measure baseline autoantibody production. Culture supernatants were collected, freeze-thawed, and assayed by ELISA for antibodies against ssDNA, dsDNA, histones and nucleosomes. For studies involving stimulation of B cells by soluble CD40 ligand, CD40L-CD8 fusion protein (Wortis et al., 1995, Proc. Natl. Acad. Sci. USA 92:3348) was added to either the co-culture wells or the wells with B cells alone and maintained in the medium for the entire 7-day culture period.

B cells [5] = assay: Helper assay: B cells from peptide-injected mice co-cultured with CD4+ T cells from unmanipulated SNF1 mice; format: cell-based, mouse
Text: as §2, §3

B cells [6] = assay: Stimulation of purified B cells from peptide-injected mice (anti-Ig (Fab')2, rIL-4, CD40L, LPS); format: cell-based, mouse
Text: as §2, §3

SNF1 mice [7] = assay: IgG anti-nuclear autoantibody and total IgG levels in sera of peptide-injected mice (ELISA); format: in vivo, mouse; conditions: sera 1:400
Description: as §1, §2

SNF1 mice [8] = assay: Chronic therapy of established glomerulonephritis with nucleosomal peptides; format: in vivo, mouse; conditions: for survival: by 26 months age; for mice alive: two months after start of treatment (all controls dead), 300 micrograms i.p. monthly, 18-month old mice
Description: Six mice per group were injected intraperitoneally once each month with either a saline solution or a peptide solution comprising saline and 300 micrograms of one of the identified peptides. The endpoint of these experiments was the development of moribund state due to renal failure.

HLA-DR = conditions: cited from earlier work
[9] = at 28 weeks of age, 300 micrograms i.v., four injections at two-week intervals from 12 weeks
[10] = at 36-38 weeks of age, control 88.8%
[11] = rIL-2 added, not significant relative to control
[12] = at 36 weeks of age, control 26±3.2
[13] = at the start of treatment (12 weeks), control 5.5±0.3

Substance	incidence of severe nephritis (SNF1 mice [3]; [9])	incidence of severe nephritis (SNF1 mice [3]; [10]) [%]	reduction of anti-ssDNA antibody production relative to control group (CD4+ T cells)	reduction of anti-dsDNA antibody production compared with control group (CD4+ T cells)	increase in help for anti-dsDNA antibody production following addition of rIL-2 (CD4+ T cells)	production of anti-nucleosome antibodies relative to control group (B cells [5])	antibody production by B cells stimulated with anti-Ig (Fab')2 in presence or absence of rIL-4 (B cells [6])	serum anti-dsDNA antibody level (SNF1 mice [7]; [12]) [units]	serum anti-dsDNA antibody level (SNF1 mice [7]; [13]) [units]	survival (SNF1 mice [8])	mice alive (SNF1 mice [8])	binding to HLA-DR (HLA-DR)	other results
H385-102: epitope in nucleosomal core histone H3, amino acid positions 85-102 (QSSAVMALQEACEAYLVG; UniProt P68431 86-103, looked up, fragment)													binding by anti-DNA autoantibodies [1]: also bound by spontaneously arising anti-DNA autoantibodies of lupus; response of splenic T cells [2]: spontaneously responded
H416-39: nucleosomal histone peptide of histone 4 protein (H4), amino acid positions 16-39	did not develop disease	11.1	approximately 55%	approximately 50%	35%	reduced by three fold	did not respond by increasing antibody production	13.0±4.0	9.0±2.1	all of the H416-39 group mice remained alive	none of the mice in H416-39 group had died	have actually been shown to bind HLA-DR	incidence of severe nephritis (SNF1 mice [3]; at 54 weeks of age): 55.5%; Percent Incidence, Grading of Lupus Nephritis 0 (SNF1 mice [4]): 33.3; Percent Incidence, Grading of Lupus Nephritis 1+ (SNF1 mice [4]): 66.6; increase in anti-nucleosome antibodies following addition of rIL-2 (CD4+ T cells; [11]): 20%; increase in anti-ssDNA antibodies following addition of rIL-2 (CD4+ T cells; [11]): 30%; ability of B cells to produce IgG autoantibodies in presence of T helper cells (B cells [5]): diminished levels of all autoantibodies; reduction of anti-histone antibody production relative to control group (B cells [5]): approximately 4 fold; level of anti-dsDNA antibodies produced by B cells (B cells [5]; control 160±18.5): 45±10.1 units per deciliter; production of anti-ssDNA antibodies by B cells (B cells [5]; control 170±10.9 units per deciliter): 60±7.9 units; antibody production by B cells with addition of CD40L and rIL-4 (B cells [6]): did not produce significant amounts of antibodies; animals exhibiting a reduction in proteinuria levels (SNF1 mice [8]; during the course of the experiment): 66.6%; proteinuria level after reduction (SNF1 mice [8]; reduced from 300-1000 milligrams per deciliter): less than 100 milligrams per deciliter
H471-94: histone 4 protein (H4) amino acids 71-94	33.3%	33.3	not significant	approximately 50%	did not exhibit any increase	remained significantly low	could be stimulated to produce autoantibodies at levels similar to those of the control mice	17.1±2.7	5.4±1.1	all of the H471-94 group mice had succumbed to renal disease	66.6%	have actually been shown to bind HLA-DR	Percent Incidence, Grading of Lupus Nephritis 2+ (SNF1 mice [4]): 66.6; Percent Incidence, Grading of Lupus Nephritis 3+ (SNF1 mice [4]): 33.3; production of anti-histone antibodies relative to control group (B cells [5]): remained significantly low
